Test results taken from patent US10526332B2, “Imidazo-pyrimidone compounds, and preparation method and application thereof” (Nanjing Gator Meditech Company, Ltd., priority 2015, dated 2020).

Legend:
HCT116 = assay: MTS cell proliferation test, HCT116; settings: Homo sapiens, HCT-116, 72 h, read-out: HCT116 IC50 (Mean ± SD);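 note: absorbance at 490 nm after MTS/PMS addition, survival relative to untreated cells (100%) after blank subtraction, IC50 from the concentration–survival curve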
Experimental: (§1) The disclosed compounds and their pharmaceutically accepted salts are assayed for their anti-cancer activities by the following method. • MTS Cell Proliferation Test 1. Materials 1.1. […] Cell Lines
(§2) Two cell lines were used, both HCT116 and MDA-MB-231 were purchased from USATCC.
(§3) MTS reagent powder was purchased from Promega. Cat #G1111; PMS from Sigma, Cat #P8625; cell culture medium RPMI-1640, Cat #10040562R; DMEM, Cat #0013CVR; 100× sodium pyruvate solution Cat #136007; 100× Penicillin Streptomycin Solution, Cat ⊇15140122; 100× Penicillin Streptomycin Solution, Cat #15140122; 0.25% Trypsin (Parenzyme), Cat #25200-072; and fetal bovine serum, Cat #16000-044 were all purchased from Life Technologies.
(§4) • Thermo incubator (Format 371); • Heat force Biosafety Cabinet (HF sage 1500); • BioTek Microplate Reader (Synergy 2). 2. […] 2.3 Procedure of MTS Methods:
(§5) Cells at logarithmic phase were harvested, then digested with 0.25% trypsin, and re-suspense in complete growth medium. 150 uL/well of HCT-116 and MDA-MB-231 were dispensed into 96 well culture plates with 2.5×10^3 cell/well. The plates were pre-incubated in a humidified CO2 incubator at 37° C., 5% CO2) for 24 hours. 50 uL of various concentration of test compounds and reference compound were added. A negative control (only cells and culture medium without compound) and blank control (only culture medium without cells) were set at the same time. The plates were incubated for 72 hr in the incubator. The MTS/PMS solution was prepared and added into 96 well plates according to the test instruction by Promega Corporation. The plates were incubated again for some time, then the absorbance at 490 nm were measured using Biotek Instruments, Inc microplate reader and the cell survival rates calculated. Cell Survival Rate(%)=(At−Ab)/(Ac−Ab)×100% where, • At=Absorbance value of test compound • Ab=Absorbance value of blank • Ac=Absorbance value of control 3. Results

MDA-MB-231 = assay: MTS cell proliferation test, MDA-MB-231; settings: Homo sapiens, MDA-MB-231, 72 h, read-out: MDA231 IC50 (Mean ± SD);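 note: cells settled 24 h before compound addition, MTS absorbance at 490 nm, survival as percent of untreated cells after blank subtraction, IC50 fitted from survival versus concentration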
Experimental: as §1, §2, §3, §4, §5

Row | Compound | IC50 (HCT116) [nM] | IC50 (MDA-MB-231) [nM]
1 | O=C1C2=C(CCN(Cc3ccccc3)C2)N2CCN=C2N1Cc1ccc(Cl)cc1C(F)(F)F [Compound I-43, 7-benzyl-4-(4-chloro-2-(trifluoromethyl)benzyl)-1,2,6,7,8,9-hexahydroimidazo[1,2-a]pyrido[3,4-e]pyrimidin-5(4H)-one] | 4290 ± 210 | 2850 ± 770
2 | O=C1C2=C(CCN(Cc3cccc(Br)c3)C2)N2CCN=C2N1Cc1ccccc1Cl [Compound I-28, 7-(3-bromobenzyl)-4-(2-chlorobenzyl)-1,2,6,7,8,9-hexahydroimidazo[1,2-a]pyrido[3,4-e]pyrimidin-5(4H)-one] | 2200 ± 17 | 2220 ± 29
3 | COc1ccc(CN2CCC3=C(C2)C(=O)N(Cc2ccccc2C)C2=NCCN23)cc1 [Compound I-7, 7-(4-methoxybenzyl)-4-(2-methylbenzyl)-1,2,6,7,8,9-hexahydroimidazo[1,2-a]pyrido[3,4-e]pyrimidin-5(4H)-one] | 2090 ± 92 | 1880 ± 78
4 | O=C1C2=C(CN(Cc3ccccc3)C2)N2CCN=C2N1Cc1ccc(Cl)c(C(F)(F)F)c1 [Compound I-57, 2-benzyl-5-(4-chloro-3-(trifluoromethyl)benzyl)-2,3,7,8-tetrahydro-1H-imidazo[1,2-a]pyrrolo[3,4-e]pyrimidin-4(5H)-one] | 2080 ± 10 | 2100 ± 70
5 | Cc1ccccc1CN1C(=O)C2=C(CCN(Cc3ccccc3Br)C2)N2CCN=C12 [Compound I-20, 7-(2-bromobenzyl)-4-(2-methylbenzyl)-1,2,6,7,8,9-hexahydroimidazo[1,2-a]pyrido[3,4-e]pyrimidin-5(4H)-one] | 27500 ± 3350 | 27100 ± 3240

Other lines, results leading:

Row | IC50 (HCT116) [nM] | IC50 (MDA-MB-231) [nM] | Compound
6 | 60 ± 6 | 70 ± 3 | O=C1C2=C(CCN(Cc3ccccc3)C2)N2CCN=C2N1Cc1ccc(Cl)cc1 [Compound I-3, 7-benzyl-4-(4-chlorobenzyl)-1,2,6,7,8,9-hexahydroimidazo[1,2-a]pyrido[3,4-e]pyrimidin-5(4H)-one]
7 | 2050 ± 30 | 2050 ± 40 | O=C1C2=C(CN(Cc3ccccc3)C2)N2CCN=C2N1Cc1ccc(Cl)cc1Cl [Compound I-56, 2-benzyl-5-(2,4-dichlorobenzyl)-2,3,7,8-tetrahydro-1H-imidazo[1,2-a]pyrrolo[3,4-e]pyrimidin-4(5H)-one]
8 | 230 ± 4 | 240 | Cc1cccc(CN2C(=O)C3=C(CCN(Cc4ccccc4)C3)N3CCN=C23)c1 [Compound I-2, 7-benzyl-4-(3-methylbenzyl)-1,2,6,7,8,9-hexahydroimidazo[1,2-a]pyrido[3,4-e]pyrimidin-5(4H)-one]
